{
  "source": "patent US10988456B2",
  "about": "“O-aminoheteroaryl alkynyl-containing compound, preparation method therefor, and use thereof” (SHANGHAI INSTITUTE OF MATERIA MEDICA, CHINESE ACADEMY OF …, priority 2017, dated 2021)",
  "key": {"[1]": {"test_system": "human gastric cancer SNU-16 xenografts", "details": "mouse, in vivo", "method": "(§1) The tumor tissue in the vigorous growth period was cut into 1.5 mm^3, and inoculated subcutaneously in the right axilla of nude mice under aseptic conditions. The diameter of the xenograft in nude mice was measured with a vernier caliper. The animals were randomly divided into groups when the average tumor volume was grown to about 190 mm^3. […] The diameter of the xenograft was measured twice a week during the entire experiment, and the body weight of the mice was weighed. The tumor volume (TV) was calculated as: TV=½×a×b^2, where a and b represented length and width, respectively. The relative tumor volume (RTV) was calculated based on the measured results, and the formula was: RTV=Vt/V0, wherein V0 represented the tumor volume obtained when the mice was divided and administered (i.e., d0), and Vt represented the tumor volume at each measurement. The anti-tumor activity evaluation index was the relative tumor proliferation rate T/C (%), and the calculation formula was as follows: T/C (%)=(TRTV/CRTV)×100%, wherein TRTV was TRV in treatment group; and CRTV was RTV in negative control group."}, "[2]": {"test_system": "human gastric cancer SNU-16 xenografts", "experiment": "Growth of subcutaneous xenografts of human gastric cancer SNU-16 in nude mice (comparative compounds study)", "details": "for relative tumor proliferation rate T/C: day 21; for Weight (g, mean ± SD): SNU-16 tumor-bearing mice", "method": "as §1"}},
  "data": [
    {"smiles": "CN1CCN(Cc2ccc(NC(=O)c3ccc(Cl)c(C#Cc4cccnc4)c3)cc2C(F)(F)F)CC1", "note": "[HuFGFR1-117]", "values": [
      {"measurement": "toxicity / condition of the mice (in words)", "setting": "[1]", "value": "dry skin, molting, and poor condition"},
      {"measurement": "Relative tumor volume RTV (mean ± SD)", "setting": "[2]; SNU-16, 20 mg/kg orally once a day, d0", "value": "1.00 ± 0.00"},
      {"measurement": "Relative tumor volume RTV (mean ± SD)", "setting": "[2]; SNU-16, 20 mg/kg orally once a day, d3", "value": "1.51 ± 0.37"},
      {"measurement": "Relative tumor volume RTV (mean ± SD)", "setting": "[2]; SNU-16, 20 mg/kg orally once a day, d7", "value": "1.75 ± 0.47"},
      {"measurement": "Relative tumor volume RTV (mean ± SD)", "setting": "[2]; SNU-16, 20 mg/kg orally once a day, d10", "value": "1.49 ± 0.14"},
      {"measurement": "Relative tumor volume RTV (mean ± SD)", "setting": "[2]; SNU-16, 20 mg/kg orally once a day, d14", "value": "2.06 ± 0.38"},
      {"measurement": "Relative tumor volume RTV (mean ± SD)", "setting": "[2]; SNU-16, 20 mg/kg orally once a day, d17", "value": "2.55 ± 0.55"},
      {"measurement": "Relative tumor volume RTV (mean ± SD)", "setting": "[2]; SNU-16, 20 mg/kg orally once a day, d21", "value": "2.78 ± 0.58"},
      {"measurement": "relative tumor proliferation rate T/C", "setting": "[2]; SNU-16, 20 mg/kg orally once a day", "value": 47.88, "unit": "%"},
      {"measurement": "animal deaths", "setting": "[2]; SNU-16, 100 mg/kg group", "value": "one mouse died on the 9th and 10th day respectively"},
      {"measurement": "Relative tumor volume RTV (mean ± SD)", "setting": "[2]; SNU-16, 100 mg/kg orally once a day (administration interrupted), d0", "value": "1.00 ± 0.00"},
      {"measurement": "Relative tumor volume RTV (mean ± SD)", "setting": "[2]; SNU-16, 100 mg/kg orally once a day (administration interrupted), d3", "value": "1.53 ± 0.39"},
      {"measurement": "Relative tumor volume RTV (mean ± SD)", "setting": "[2]; SNU-16, 100 mg/kg orally once a day (administration interrupted), d7", "value": "0.80 ± 0.18"},
      {"measurement": "Relative tumor volume RTV (mean ± SD)", "setting": "[2]; SNU-16, 100 mg/kg orally once a day (administration interrupted), d10", "value": "0.49 ± 0.08"},
      {"measurement": "Relative tumor volume RTV (mean ± SD)", "setting": "[2]; SNU-16, 100 mg/kg orally once a day (administration interrupted), d14", "value": "0.51 ± 0.19"},
      {"measurement": "Relative tumor volume RTV (mean ± SD)", "setting": "[2]; SNU-16, 100 mg/kg orally once a day (administration interrupted), d17", "value": "0.75 ± 0.22"},
      {"measurement": "Relative tumor volume RTV (mean ± SD)", "setting": "[2]; SNU-16, 100 mg/kg orally once a day (administration interrupted), d21", "value": "0.83 ± 0.31"},
      {"measurement": "relative tumor proliferation rate T/C", "setting": "[2]; SNU-16, 100 mg/kg orally, administration interrupted", "value": 14.38, "unit": "%"},
      {"measurement": "weight of the tumor-bearing mice (in words)", "setting": "[2]; SNU-16, HuFGFR1-113 at 20 mg/kg, HuFGFR1-117 dose not stated", "value": "significantly decreased"},
      {"measurement": "Weight (g, mean ± SD)", "setting": "[2]; 20 mg/kg orally once a day, d0", "value": "22.5 ± 1.9", "unit": "g"},
      {"measurement": "Weight (g, mean ± SD)", "setting": "[2]; 20 mg/kg orally once a day, d3", "value": "23.6 ± 2.1", "unit": "g"},
      {"measurement": "Weight (g, mean ± SD)", "setting": "[2]; 20 mg/kg orally once a day, d7", "value": "22.7 ± 2.0", "unit": "g"},
      {"measurement": "Weight (g, mean ± SD)", "setting": "[2]; 20 mg/kg orally once a day, d10", "value": "22.7 ± 2.3", "unit": "g"},
      {"measurement": "Weight (g, mean ± SD)", "setting": "[2]; 20 mg/kg orally once a day, d14", "value": "23.6 ± 2.4", "unit": "g"},
      {"measurement": "Weight (g, mean ± SD)", "setting": "[2]; 20 mg/kg orally once a day, d17", "value": "24.2 ± 2.5", "unit": "g"},
      {"measurement": "Weight (g, mean ± SD)", "setting": "[2]; 20 mg/kg orally once a day, d21", "value": "24.7 ± 2.3", "unit": "g"},
      {"measurement": "Weight (g, mean ± SD)", "setting": "[2]; 100 mg/kg orally once a day (administration interrupted), d0", "value": "23.6 ± 0.7", "unit": "g"},
      {"measurement": "Weight (g, mean ± SD)", "setting": "[2]; 100 mg/kg orally once a day (administration interrupted), d3", "value": "24.4 ± 1.8", "unit": "g"},
      {"measurement": "Weight (g, mean ± SD)", "setting": "[2]; 100 mg/kg orally once a day (administration interrupted), d7", "value": "21.1 ± 1.9", "unit": "g"},
      {"measurement": "Weight (g, mean ± SD)", "setting": "[2]; 100 mg/kg orally once a day (administration interrupted), d10", "value": "17.6 ± 1.8", "unit": "g"},
      {"measurement": "Weight (g, mean ± SD)", "setting": "[2]; 100 mg/kg orally once a day (administration interrupted), d14", "value": "19.7 ± 2.0", "unit": "g"},
      {"measurement": "Weight (g, mean ± SD)", "setting": "[2]; 100 mg/kg orally once a day (administration interrupted), d17", "value": "22.6 ± 1.5", "unit": "g"},
      {"measurement": "Weight (g, mean ± SD)", "setting": "[2]; 100 mg/kg orally once a day (administration interrupted), d21", "value": "23.0 ± 2.4", "unit": "g"}
    ]}
  ]
}
